Results reported in patent publication US20260199497A1, “GLUCOCORTICOID RECEPTOR AGONIST AND CONJUGATE THEREOF” (priority 2023, published 2026).

Tests used:
Type in all cases: cell-based
glucocorticoid receptor [1] = biological target: T1, glucocorticoid receptor (Homo sapiens, UniProt P04150); experiment: GRE reporter gene test (Experiment Example 2), HEK293T cells transfected with pGL4.35 and p-Bind GR Vector; conditions: for EC50: GRE reporter gene, HEK293T cells, 18-20 h incubation; for Emax: HEK-293T
T1 sequence (P04150 524-777 limits assumed): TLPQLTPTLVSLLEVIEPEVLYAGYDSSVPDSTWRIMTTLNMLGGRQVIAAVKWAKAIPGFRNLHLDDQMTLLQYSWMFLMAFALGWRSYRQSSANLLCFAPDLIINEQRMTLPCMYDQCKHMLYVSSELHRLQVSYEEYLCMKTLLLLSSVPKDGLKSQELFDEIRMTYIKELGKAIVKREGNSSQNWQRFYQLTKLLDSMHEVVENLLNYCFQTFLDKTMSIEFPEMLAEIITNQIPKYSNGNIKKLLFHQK
Method: The compound of the present invention to be tested was formulated into a 1 mM solution with DMSO, and then subjected to 4-fold dilution at 10 concentration points using DMSO to obtain a 1000× mother liquor, with a final test concentration of 0.0000038-1 μM.
(§1) HEK293T cells (ATCC) were plated in a 100 mm culture dish at a density of 6*10^6 cells/culture dish, and cultured for 16 h under the conditions of 37° C. and 5% CO2. Plasmids (pGL4.35 [luc2P/9XGAL4 UAS/Hygro], p-Bind GR Vector, Promega) and Lipofectamine® 3000 (Invitrogen) were mixed, added into the culture dish, and then incubated for 5-6 h under the conditions of 37° C. and 5% CO2.
In a 384-well plate (PerkinElmer), 25 nL of the compound mother liquor was added, and then HEK293T cells transfected with plasmids were added at a density of 18000 cells/well (25 μL). The cells were incubated for 18-20 h under the conditions of 37° C. and 5% CO2.
After the incubation was ended, 25 μL of britelite plus luciferase assay reagent (PerkinElmer) was added, and then reading was performed using an Envision 2105 multimode reader (PerkinElmer).
(§2) The activity was calculated using the following formula, % activity=100*(signal of compound well−average signal of negative control well)/(average signal of positive control well−average signal of negative control well). […] Fitting calculation of EC50 was performed on % activity and the logarithmic concentration of the compound using Graphpad 8.0, Y=Bottom+(Top−Bottom)/(1+10^((Log EC50−X)*HillSlope)), wherein Y is % activity, and X is the logarithmic concentration of the compound.

glucocorticoid receptor [2] = biological target: T2, glucocorticoid receptor (Homo sapiens, UniProt P04150); experiment: In vitro activation activity of the glucocorticoid on the glucocorticoid receptor in Hela-MMTV luciferase reporter cells; conditions: 48 hours; for EC50: Hela-MMTV luciferase reporter cells; for in vitro activation activity on the glucocorticoid receptor in the cells: Hela-MMTV cells, compared with comparative compound 1
T2 sequence (P04150 1-777): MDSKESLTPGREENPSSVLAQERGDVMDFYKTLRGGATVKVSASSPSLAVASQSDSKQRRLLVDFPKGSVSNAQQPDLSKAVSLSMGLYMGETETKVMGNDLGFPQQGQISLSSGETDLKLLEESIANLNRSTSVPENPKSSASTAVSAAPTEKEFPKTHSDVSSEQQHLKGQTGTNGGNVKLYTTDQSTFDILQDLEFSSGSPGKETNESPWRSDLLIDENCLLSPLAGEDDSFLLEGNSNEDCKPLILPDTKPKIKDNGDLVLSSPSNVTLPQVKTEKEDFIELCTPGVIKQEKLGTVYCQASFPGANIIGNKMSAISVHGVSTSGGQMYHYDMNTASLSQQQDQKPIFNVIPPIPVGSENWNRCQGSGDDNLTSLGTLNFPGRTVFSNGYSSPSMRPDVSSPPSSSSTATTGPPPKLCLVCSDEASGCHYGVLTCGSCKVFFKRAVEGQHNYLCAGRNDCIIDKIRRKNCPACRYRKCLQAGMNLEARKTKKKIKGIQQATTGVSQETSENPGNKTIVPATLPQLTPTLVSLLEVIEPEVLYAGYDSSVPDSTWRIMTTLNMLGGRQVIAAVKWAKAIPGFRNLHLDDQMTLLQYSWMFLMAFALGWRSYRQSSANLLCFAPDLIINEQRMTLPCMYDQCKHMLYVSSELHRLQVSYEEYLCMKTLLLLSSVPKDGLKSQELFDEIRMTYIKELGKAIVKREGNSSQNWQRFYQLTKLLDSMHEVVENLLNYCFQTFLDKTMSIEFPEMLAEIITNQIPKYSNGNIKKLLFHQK
Method: The activation activity of the glucocorticoid on glucocorticoid receptor was tested in the constructed Hela-MMTV luciferase reporter system cells. Adherent Hela-MMTV cells were digested using a Trypsin-EDTA (0.25%) solution, counted, and the cells in a required number were resuspended in complete medium (1640+10% FBS). The cells were then plated in a 96-well cell culture plate at 10,000 cells/100 μl. The glucocorticoid was diluted in complete medium, starting at a final concentration of 75 nM, followed by 5-fold gradient dilution, and was added to the plated cells at 100 μl per well. The cells were incubated in a cell culture incubator at 37° C. for 48 hours. Then Bio-Lite luciferase assay reagent (Vazyme DD1201-03) was added to the cells at 20 μl per well, followed by homogeneously shaking for 10 minutes, and luminescence readings were obtained using a microplate reader. The data were imported into GraphPad Prism 8 software to calculate the EC50 value.

mouse B cells = experiment: In vitro inhibition of the proliferation of mouse B cells by the glucocorticoid; conditions: 4 days; for in-vitro inhibitory activity on the proliferation of mouse B cells: LPS 5 μg/ml, ranking of the compounds; for IC50: B-cell, 96 h, LPS 5 μg/ml stimulated mouse spleen B cells, live cells by flow cytometry
Method: According to instructions of the EasySEP mouse panB cell sorting kit (Stemcell/1984/1×100e9 cells), B cells were isolated from mouse spleen cells. After obtaining the B cells, they were resuspended in complete medium (1640+10% FBS+50 uM β-mercaptoethanol), and added to a 96-well cell culture plate at 1E5 cells/100 μL per well. 4×LPS (20 μg/ml) was prepared, and add to the plated cells at 50 μL per well, with a final concentration of 5 μg/ml. The glucocorticoid was diluted with complete medium in a 5-fold gradient, starting at a final concentration of 20 nM, and added to the plated cells at 50 μL per well. The cells were incubated in a 37° C. cell culture incubator for 4 days. Then PI was added to the cells for dead cell staining, and the number of live cells was detected by flow cytometry. The cell viability was calculated using the number of live cells in the untreated wells as the denominator. The cell viability values was imported into the GraphPad Prism 8 software to calculate IC50. The structure of the comparative compound 1 is as follows: […]

glucocorticoid receptor [3] = biological target: T1, glucocorticoid receptor; experiment: GRE reporter gene test (Experiment Example 1), HEK293T cells transfected with pGL4.35 and p-Bind GR Vector; conditions: for EC50: GRE reporter gene, HEK293T cells, 18-20 h incubation; for Emax: HEK-293T; for maximum agonistic effect (Emax): compared with dexamethasone, transfected HEK293T cells
Method: The compound of the present invention to be tested was formulated into a 10 mM solution with DMSO, and then subjected to 4-fold dilution at 10 concentration points using DMSO to obtain a 1000× mother liquor, with a final test concentration of 0.000038-10 μM.
as §1
In a 384-well plate (PerkinElmer), 25 nL of the compound mother liquor was added, and then HEK293T cells transfected with plasmids were added at a density of 18000 cells/well. The cells were incubated for 18-20 h under the conditions of 37° C. and 5% CO2.
After the incubation was ended, 25 μL of britelite plus luciferase assay reagent (PerkinElmer) was added, and then reading was performed using an Envision 2105 multiplate reader (PerkinElmer).
as §2

Row | Compound | Emax (glucocorticoid receptor [1]) [%] | EC50 (glucocorticoid receptor [2]) [nM] | IC50 (mouse B cells) [nM] | EC50 (glucocorticoid receptor [3]) [nM] | Emax (glucocorticoid receptor [3]; read-out: Emax) [%] | further results
1 | C[C@H](O)CC(=O)O[C@]1(C(=O)SCF)[C@H](C)C[C@H]2[C@@H]3C[C@H](F)C4=CC(=O)C=C[C@]4(C)[C@@]3(F)[C@@H](O)C[C@@]21C [D-15, (6S,8S,9R,10S,11S,13S,14S,16R,17R)-6,9-difluoro-17-(((fluoromethyl)thio)carbonyl)-11-hydroxy-10,13,16-trimethyl-3-oxo-6,7,8,9,10,11,12,13,14,15,16,17-dodecahydro-3H-cyclopenta[a]phenanthren-17-yl (S)-3-hydroxybutyrate] | 102 | 0.074 |  |  |  | EC50 (glucocorticoid receptor [1]): 1.4 nM
2 | C[C@H]1C[C@@]2(C)[C@@H](C[C@H]3O[C@@H](c4ccc(Cc5cccc(N)c5)cc4)O[C@]32C(=O)CO)[C@@H]2CCC3=CC(=O)C=C[C@]3(C)[C@H]21 [comparative compound 1, reference compound] |  | 0.956 |  |  |  | in-vitro inhibitory activity on the proliferation of mouse B cells (mouse B cells): relatively the weakest inhibitory activity
3 | C[C@@H]1C[C@H]2[C@@H]3C[C@H](F)C4=CC(=O)C=C[C@]4(C)[C@@]3(F)[C@@H](O)C[C@]2(C)[C@@]1(OC(=O)CCO)C(=O)SCF [D-5] | 132 | 0.154 | 0.312 |  |  | EC50 (glucocorticoid receptor [1]): 1.3 nM; maximum agonistic activity (Emax) (glucocorticoid receptor [1]; compared with dexamethasone, transfected HEK293T cells): superior to dexamethasone; in vitro activation activity on the glucocorticoid receptor in the cells (glucocorticoid receptor [2]): superior to comparative compound 1
4 | C[C@]12C=CC(=O)C=C1[C@@H](F)C[C@H]1[C@@H]3CC[C@](OC(=O)c4ccc(F)c(N)c4)(C(=O)SCF)[C@@]3(C)C[C@H](O)[C@@]12F [A-1] |  | 0.0097 | 0.032 | 0.2 | 102 | maximum agonistic effect (Emax) (glucocorticoid receptor [3]): superior to dexamethasone; in-vitro inhibitory activity on the proliferation of mouse B cells (mouse B cells): most strongest inhibitory activity; in vitro activation activity on the glucocorticoid receptor in the cells (glucocorticoid receptor [2]): superior to comparative compound 1
5 | C[C@@H]1C[C@H]2[C@@H]3CCC4=CC(=O)C=C[C@]4(C)[C@@]3(F)[C@@H](O)C[C@]2(C)[C@@]1(O)C(=O)CO [Dexamethasone, reference compound] | 98.3 |  |  |  |  | Emax (glucocorticoid receptor [3]): 100%
6 | C[C@@H]1C[C@H]2[C@@H]3C[C@H](F)C4=CC(=O)C=C[C@]4(C)[C@@]3(F)[C@@H](O)C[C@]2(C)[C@@]1(OC(=O)c1ccccc1)C(=O)SCF [H-1, (6S,8S,9R,10S,11S,13S,14S,16R,17R)-6,9-difluoro-17-((fluoromethyl)thio)carbonyl)-11-hydroxy-10,13,16-trimethyl-3-oxo-6,7,8,9,10,11,12,13,14,15,16,17-dodecahydro-3H-cyclopenta[a]phenanthren-17-yl benzoate] |  |  |  | 0.18 | 110 | maximum agonistic effect (Emax) (glucocorticoid receptor [3]): superior to dexamethasone
7 | C[C@@H]1C[C@H]2[C@@H]3C[C@H](F)C4=CC(=O)C=C[C@]4(C)[C@@]3(F)[C@@H](O)C[C@]2(C)[C@@]1(OC(=O)c1ccc(F)c(N)c1)C(=O)OCF [O-1, fluoromethyl (6S,8S,9R,10S,11S,13S,14S,16R,17R)-17-((3-amino-4-fluorobenzoyl)oxy)-6,9-difluoro-11-hydroxy-10,13,16-trimethyl-3-oxo-6,7,8,9,10,11,12,13,14,15,16,17-dodecahydro-3H-cyclopenta[a]phenanthrene-17-carboxylate] |  |  |  | 0.2 | 87.3 | 
8 | C[C@H]1C[C@@]2(C)[C@@H](C[C@H]3O[C@@H](c4ccc(Cc5cccc(N)c5)cc4)O[C@]32C(=O)CO)[C@@H]2CCC3=CC(=O)C=C[C@]3(C)[C@H]21 [Comparative example 1] |  |  | 0.825 |  |  | 
